Experimental data: article PMC3928398, “RPEL Proteins Are the Molecular Targets for CCG-1423, an Inhibitor of Rho Signaling” (PLoS ONE, 2014)

Experiments:
Experiment in all cases: pull-down with CCG-1423 Sepharose, immunoblot
Type in all cases: binding
[1] = target: T1, Phactr1, Flag-Phactr1 (Rattus norvegicus, UniProt P62024); conditions: immobilised CCG-1423 (photo-crosslinked to Sepharose); pH 7.5, 4°C, 2 h
T1 construct: N-terminal Flag tag, pCS2+; in vitro translated in wheat germ extract, anti-Flag purified
T1 sequence (P62024 1-580): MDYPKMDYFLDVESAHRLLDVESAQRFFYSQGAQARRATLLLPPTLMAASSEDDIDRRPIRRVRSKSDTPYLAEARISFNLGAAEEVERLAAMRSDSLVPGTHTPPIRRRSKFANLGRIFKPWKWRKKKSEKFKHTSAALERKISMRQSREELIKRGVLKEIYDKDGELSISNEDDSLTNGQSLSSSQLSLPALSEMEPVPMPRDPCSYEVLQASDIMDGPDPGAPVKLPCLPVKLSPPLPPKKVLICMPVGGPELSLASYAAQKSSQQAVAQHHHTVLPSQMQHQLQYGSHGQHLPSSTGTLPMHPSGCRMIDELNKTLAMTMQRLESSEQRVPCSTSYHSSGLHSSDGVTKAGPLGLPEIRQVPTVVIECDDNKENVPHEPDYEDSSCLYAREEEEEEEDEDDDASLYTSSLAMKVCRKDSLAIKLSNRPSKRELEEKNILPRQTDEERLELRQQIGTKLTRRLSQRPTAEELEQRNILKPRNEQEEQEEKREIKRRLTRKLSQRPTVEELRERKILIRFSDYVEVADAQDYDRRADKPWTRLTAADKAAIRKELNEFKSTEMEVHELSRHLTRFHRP

[2] = target: T2, MRTF-A (MAL/MKL1), Flag-MRTF-A (Mus musculus, UniProt Q8K4J6); conditions: immobilised CCG-1423 (photo-crosslinked to Sepharose); pH 7.5, 4°C, 2 h
T2 construct: gene Mrtfa; N-terminal Flag tag, pCS2+; in vitro translated in wheat germ extract, anti-Flag purified
T2 sequence (Q8K4J6 1-964): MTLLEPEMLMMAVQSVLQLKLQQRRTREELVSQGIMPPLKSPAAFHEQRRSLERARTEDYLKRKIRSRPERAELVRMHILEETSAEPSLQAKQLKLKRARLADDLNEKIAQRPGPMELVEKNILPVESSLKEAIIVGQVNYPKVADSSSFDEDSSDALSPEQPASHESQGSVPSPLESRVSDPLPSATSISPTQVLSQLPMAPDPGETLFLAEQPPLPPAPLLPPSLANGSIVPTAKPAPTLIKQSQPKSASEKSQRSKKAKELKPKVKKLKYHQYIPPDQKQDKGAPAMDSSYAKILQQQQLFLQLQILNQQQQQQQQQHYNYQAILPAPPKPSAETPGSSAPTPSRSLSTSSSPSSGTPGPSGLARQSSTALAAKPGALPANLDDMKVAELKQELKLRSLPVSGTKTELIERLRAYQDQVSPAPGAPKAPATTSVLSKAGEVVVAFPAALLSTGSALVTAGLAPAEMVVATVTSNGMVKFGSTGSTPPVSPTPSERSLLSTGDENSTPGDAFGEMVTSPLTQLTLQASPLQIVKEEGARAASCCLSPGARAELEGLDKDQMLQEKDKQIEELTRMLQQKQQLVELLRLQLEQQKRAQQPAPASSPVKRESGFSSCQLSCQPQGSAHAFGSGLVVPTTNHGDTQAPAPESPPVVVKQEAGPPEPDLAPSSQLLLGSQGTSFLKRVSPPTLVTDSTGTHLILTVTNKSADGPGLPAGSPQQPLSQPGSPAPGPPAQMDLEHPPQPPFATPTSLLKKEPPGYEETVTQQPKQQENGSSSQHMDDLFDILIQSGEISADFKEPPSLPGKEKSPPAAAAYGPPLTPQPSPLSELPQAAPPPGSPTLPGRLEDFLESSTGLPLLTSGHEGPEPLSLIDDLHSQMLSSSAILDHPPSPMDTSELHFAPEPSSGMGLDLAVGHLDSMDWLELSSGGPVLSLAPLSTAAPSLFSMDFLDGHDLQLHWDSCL

[3] = target: T3, MRTF-B (MAL16/MKL2), Flag-MRTF-B (Mus musculus, UniProt P59759); conditions: immobilised CCG-1423 (photo-crosslinked to Sepharose); pH 7.5, 4°C, 2 h
T3 construct: gene Mrtfb; N-terminal Flag tag, pCS2+; in vitro translated in wheat germ extract, anti-Flag purified
T3 sequence (P59759 1-1080): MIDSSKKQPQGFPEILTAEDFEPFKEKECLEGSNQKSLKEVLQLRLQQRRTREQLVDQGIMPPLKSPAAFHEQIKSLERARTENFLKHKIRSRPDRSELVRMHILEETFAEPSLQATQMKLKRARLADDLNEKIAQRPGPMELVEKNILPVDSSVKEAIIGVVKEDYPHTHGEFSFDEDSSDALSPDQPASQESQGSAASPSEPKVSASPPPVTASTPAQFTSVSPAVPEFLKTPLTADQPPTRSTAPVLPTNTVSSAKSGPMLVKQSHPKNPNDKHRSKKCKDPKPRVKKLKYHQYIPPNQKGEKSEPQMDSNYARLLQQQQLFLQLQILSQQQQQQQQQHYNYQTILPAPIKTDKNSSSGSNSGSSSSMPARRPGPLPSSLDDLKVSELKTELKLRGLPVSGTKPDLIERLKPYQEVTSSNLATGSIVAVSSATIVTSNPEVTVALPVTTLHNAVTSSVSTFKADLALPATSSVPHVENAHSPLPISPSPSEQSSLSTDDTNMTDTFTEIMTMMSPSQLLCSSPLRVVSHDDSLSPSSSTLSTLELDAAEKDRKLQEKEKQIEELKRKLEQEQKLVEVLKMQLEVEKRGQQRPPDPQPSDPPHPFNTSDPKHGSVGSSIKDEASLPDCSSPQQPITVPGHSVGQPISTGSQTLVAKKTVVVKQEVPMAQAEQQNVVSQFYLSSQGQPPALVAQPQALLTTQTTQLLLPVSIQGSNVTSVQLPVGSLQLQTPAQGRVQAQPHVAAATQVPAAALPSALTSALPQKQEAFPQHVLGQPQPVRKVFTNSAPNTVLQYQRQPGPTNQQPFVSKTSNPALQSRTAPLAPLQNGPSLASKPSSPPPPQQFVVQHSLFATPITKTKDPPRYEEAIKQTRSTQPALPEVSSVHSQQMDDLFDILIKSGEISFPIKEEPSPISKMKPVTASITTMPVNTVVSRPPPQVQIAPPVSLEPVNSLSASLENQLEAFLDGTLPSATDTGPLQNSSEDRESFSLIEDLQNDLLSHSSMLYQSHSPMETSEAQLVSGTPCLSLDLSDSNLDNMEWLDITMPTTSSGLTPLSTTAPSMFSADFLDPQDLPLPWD

[4] = target: T3, MRTF-B (MAL16/MKL2), Flag-MRTF-B; conditions: immobilised CCG-1423 (photo-crosslinked to Sepharose); pH 7.5, 4°C, 2 h; remark: listed apart in the source
[5] = target: T2, MRTF-A (MAL/MKL1), Flag-MRTF-A; conditions: immobilised CCG-1423 (photo-crosslinked to Sepharose) competed by 10 µM free CCG-1423; no G-actin; pH 7.5, 4°C, 2 h; site: N-terminal basic domain (NB)
[6] = target: T4, Mycd (myocardin), Flag-Mycd (Mus musculus, UniProt Q8VIM5); conditions: immobilised CCG-1423 (photo-crosslinked to Sepharose); pH 7.5, 4°C, 2 h
T4 construct: gene Myocd; N-terminal Flag tag, pCS2+; in vitro translated in wheat germ extract, anti-Flag purified
T4 sequence (Q8VIM5 1-935): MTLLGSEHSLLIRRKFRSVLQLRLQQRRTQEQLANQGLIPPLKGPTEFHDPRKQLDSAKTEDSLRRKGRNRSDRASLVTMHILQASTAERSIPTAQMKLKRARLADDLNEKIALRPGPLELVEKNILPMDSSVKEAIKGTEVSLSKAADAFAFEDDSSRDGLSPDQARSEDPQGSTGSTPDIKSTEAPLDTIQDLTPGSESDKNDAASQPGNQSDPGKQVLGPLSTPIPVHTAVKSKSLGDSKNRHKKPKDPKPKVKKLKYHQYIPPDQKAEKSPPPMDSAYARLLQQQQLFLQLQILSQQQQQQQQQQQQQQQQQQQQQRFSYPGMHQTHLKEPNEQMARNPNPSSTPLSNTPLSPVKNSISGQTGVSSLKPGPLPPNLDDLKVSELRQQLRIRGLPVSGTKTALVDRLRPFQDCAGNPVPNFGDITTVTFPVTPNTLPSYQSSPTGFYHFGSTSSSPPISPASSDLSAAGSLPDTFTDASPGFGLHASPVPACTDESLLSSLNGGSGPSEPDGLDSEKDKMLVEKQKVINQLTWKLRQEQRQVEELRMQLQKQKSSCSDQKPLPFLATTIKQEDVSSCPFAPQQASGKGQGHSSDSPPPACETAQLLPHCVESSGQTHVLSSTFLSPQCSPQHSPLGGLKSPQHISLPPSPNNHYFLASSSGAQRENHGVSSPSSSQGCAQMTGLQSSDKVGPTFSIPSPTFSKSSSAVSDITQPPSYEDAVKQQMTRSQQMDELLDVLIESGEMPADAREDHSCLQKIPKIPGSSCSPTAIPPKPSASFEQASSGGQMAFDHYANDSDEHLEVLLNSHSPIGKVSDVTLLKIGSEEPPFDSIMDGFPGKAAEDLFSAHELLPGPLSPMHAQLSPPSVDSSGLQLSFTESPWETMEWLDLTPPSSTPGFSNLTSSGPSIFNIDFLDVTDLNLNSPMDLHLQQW

## CC(ONC(=O)c1cc(C(F)(F)F)cc(C(F)(F)F)c1)C(=O)Nc1ccc(Cl)cc1 (stereo not drawn) [CCG-1423]
[1]
  pull-down with CCG-1423 Sepharose, immunoblot: MRTF-B, Mycd, and Phactr1 bound to CCG-1423 Sepharose
[2]
  % of wild-type binding: 11.2±8.5%
[3]
  pull-down with CCG-1423 Sepharose, immunoblot: MRTF-B NBmut) to CCG-1423 Sepharose severely reduced
[4]
  pull-down with CCG-1423 Sepharose, immunoblot: MRTF-B, Mycd, and Phactr1 bound to CCG-1423 Sepharose
[5]
  % of binding left with 10 μM free CCG-1423: 20.6±6.3%
[6]
  pull-down with CCG-1423 Sepharose, immunoblot: MRTF-B, Mycd, and Phactr1 bound to CCG-1423 Sepharose
